Measured values taken from PubChem BioAssay (NCI).
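Tested at 5 concentrations; 48 h exposure; 96-well plates; endpoints linearly interpolated, else capped at highest concentration. Abbreviation: GI50, concentration required for 50% inhibition of growth. TGI: concentration producing complete growth inhibition.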

Columns and labels:
Assay in all cases: NCI anticancer screen, dose series, 48 h
HOP-62 NSCLC = test system: HOP-62 NSCLC
SNB-19 CNS = test system: SNB-19 CNS
HCT-116 colon = test system: HCT-116 colon
SF-539 CNS = test system: SF-539 CNS
M14 melanoma = test system: M14 melanoma
KM12 colon = test system: KM12 colon
CCRF-CEM leukemia = test system: CCRF-CEM leukemia
NCI-H226 lung = test system: NCI-H226 lung
SF-268 CNS = test system: SF-268 CNS
HL-60(TB) leukemia = test system: HL-60(TB) leukemia
LOX IMVI melanoma = test system: LOX IMVI melanoma
NCI-H23 lung = test system: NCI-H23 lung
MOLT-4 leukemia = test system: MOLT-4 leukemia
SNB-75 CNS = test system: SNB-75 CNS
HOP-92 NSCLC = test system: HOP-92 NSCLC
COLO 205 colon = test system: COLO 205 colon
SN12C renal = test system: SN12C renal
MALME-3M melanoma = test system: MALME-3M melanoma
OVCAR-3 ovarian = test system: OVCAR-3 ovarian
UACC-62 melanoma = test system: UACC-62 melanoma
HS 578T breast = test system: HS 578T breast
SK-MEL-28 melanoma = test system: SK-MEL-28 melanoma
UACC-257 melanoma = test system: UACC-257 melanoma
UO-31 renal = test system: UO-31 renal
HCT-15 colon = test system: HCT-15 colon
RXF 393 renal = test system: RXF 393 renal
TK-10 renal = test system: TK-10 renal
OVCAR-5 ovarian = test system: OVCAR-5 ovarian
SK-OV-3 ovarian = test system: SK-OV-3 ovarian
EKVX NSCLC = test system: EKVX NSCLC
SK-MEL-2 melanoma = test system: SK-MEL-2 melanoma
U251 CNS = test system: U251 CNS
OVCAR-4 ovarian = test system: OVCAR-4 ovarian
A549 NSCLC = test system: A549 NSCLC
MCF7 breast = test system: MCF7 breast
IGROV1 ovarian = test system: IGROV1 ovarian
HCC-2998 colon = test system: HCC-2998 colon
BT-549 breast = test system: BT-549 breast
SW-620 colon = test system: SW-620 colon
SK-MEL-5 melanoma = test system: SK-MEL-5 melanoma
786-0 renal = test system: 786-0 renal
PC-3 prostate = test system: PC-3 prostate
K-562 leukemia = test system: K-562 leukemia
NCI-H522 lung = test system: NCI-H522 lung
HT29 colon = test system: HT29 colon
A498 renal = test system: A498 renal
ACHN renal = test system: ACHN renal
CAKI-1 renal = test system: CAKI-1 renal
RPMI-8226 leukemia = test system: RPMI-8226 leukemia
SR leukemia = test system: SR leukemia
OVCAR-8 ovarian = test system: OVCAR-8 ovarian
NCI/ADR-RES ovarian = test system: NCI/ADR-RES ovarian
DU-145 prostate = test system: DU-145 prostate
MDA-MB-231 breast = test system: MDA-MB-231 breast
SF-295 CNS = test system: SF-295 CNS
NCI-H460 lung = test system: NCI-H460 lung
T-47D breast = test system: T-47D breast

## O=C(N/N=C/c1ccc[nH]1)c1[nH]c2ccc(Br)cc2c1-c1ccccc1
HOP-62 NSCLC
  GI50: 526 nM
  TGI: 8930 nM
SNB-19 CNS
  GI50: 423 nM
  TGI: 11500 nM
HCT-116 colon
  GI50: 318 nM
  TGI: 11000 nM
SF-539 CNS
  GI50: 219 nM
  TGI: 590 nM
M14 melanoma
  GI50: 322 nM
  TGI: 10700 nM
KM12 colon
  GI50: 477 nM
  TGI: 6080 nM
CCRF-CEM leukemia
  GI50: 385 nM
  TGI: 11800 nM
NCI-H226 lung
  GI50: 398 nM
  TGI: 2780 nM
SF-268 CNS
  GI50: 1570 nM
  TGI: 9840 nM
HL-60(TB) leukemia
  GI50: 235 nM
  TGI: 619 nM
LOX IMVI melanoma
  GI50: 310 nM
  TGI: 4970 nM
NCI-H23 lung
  GI50: 456 nM
  TGI: 11300 nM
MOLT-4 leukemia
  GI50: 437 nM
  TGI: 13400 nM
SNB-75 CNS
  GI50: 187 nM
  TGI: 3830 nM
HOP-92 NSCLC
  GI50: 1770 nM
  TGI: 9770 nM
COLO 205 colon
  GI50: 298 nM
  TGI: 1320 nM
SN12C renal
  GI50: 410 nM
  TGI: 3910 nM
MALME-3M melanoma
  GI50: 410 nM
  TGI: 11500 nM
OVCAR-3 ovarian
  GI50: 477 nM
  TGI: 12400 nM
UACC-62 melanoma
  GI50: 191 nM
  TGI: 1760 nM
HS 578T breast
  GI50: 380 nM
  TGI: 19700 nM
SK-MEL-28 melanoma
  GI50: 653 nM
  TGI: 16100 nM
UACC-257 melanoma
  GI50: 688 nM
  TGI: 13700 nM
UO-31 renal
  GI50: 489 nM
  TGI: 5740 nM
HCT-15 colon
  GI50: 297 nM
  TGI: 10900 nM
RXF 393 renal
  GI50: 339 nM
  TGI: 10300 nM
TK-10 renal
  GI50: 1710 nM
  TGI: 13900 nM
OVCAR-5 ovarian
  GI50: 489 nM
  TGI: 10700 nM
SK-OV-3 ovarian
  GI50: 614 nM
  TGI: 9890 nM
EKVX NSCLC
  GI50: 881 nM
  TGI: 9160 nM
SK-MEL-2 melanoma
  GI50: 379 nM
  TGI: 13900 nM
U251 CNS
  GI50: 349 nM
  TGI: 4570 nM
OVCAR-4 ovarian
  GI50: 954 nM
  TGI: 12100 nM
A549 NSCLC
  GI50: 345 nM
  TGI: 6880 nM
MCF7 breast
  GI50: 178 nM
  TGI: 2410 nM
IGROV1 ovarian
  GI50: 460 nM
  TGI: 4100 nM
HCC-2998 colon
  GI50: 408 nM
  TGI: 4810 nM
BT-549 breast
  GI50: 416 nM
  TGI: 2420 nM
SW-620 colon
  GI50: 378 nM
  TGI: 13600 nM
SK-MEL-5 melanoma
  GI50: 344 nM
  TGI: 1600 nM
786-0 renal
  GI50: 669 nM
  TGI: 7370 nM
PC-3 prostate
  GI50: 441 nM
  TGI: 8150 nM
K-562 leukemia
  GI50: 253 nM
  TGI: 29800 nM
NCI-H522 lung
  GI50: 92.7 nM
  TGI: 515 nM
HT29 colon
  GI50: 324 nM
  TGI: 4310 nM
A498 renal
  GI50: 6360 nM
  TGI: 21900 nM
ACHN renal
  GI50: 516 nM
  TGI: 5880 nM
CAKI-1 renal
  GI50: 362 nM
  TGI: 9860 nM
RPMI-8226 leukemia
  GI50: 400 nM
  TGI: 10700 nM
SR leukemia
  GI50: 273 nM
OVCAR-8 ovarian
  GI50: 361 nM
  TGI: 3420 nM
NCI/ADR-RES ovarian
  GI50: 316 nM
  TGI: 2190 nM
DU-145 prostate
  GI50: 489 nM
  TGI: 12400 nM
MDA-MB-231 breast
  GI50: 572 nM
  TGI: 6090 nM
SF-295 CNS
  GI50: 243 nM
  TGI: 1020 nM
NCI-H460 lung
  GI50: 338 nM
  TGI: 1230 nM
T-47D breast
  GI50: 319 nM
  TGI: 7250 nM

## COc1ccc([C@H]2[C@H](O)C(=O)N2c2cc(OC)c(OC)c(OC)c2)cc1O
HOP-62 NSCLC
  GI50: < 22.4 nM
  TGI: > 100000 nM
SNB-19 CNS
  GI50: 48.5 nM
  TGI: > 100000 nM
HCT-116 colon
  GI50: < 10 nM
  TGI: > 100000 nM
SF-539 CNS
  GI50: < 10 nM
  TGI: 43.6 nM
M14 melanoma
  GI50: < 16.3 nM
  TGI: > 100000 nM
KM12 colon
  GI50: < 15.3 nM
  TGI: > 100000 nM
CCRF-CEM leukemia
  GI50: < 16.7 nM
  TGI: > 100000 nM
NCI-H226 lung
  GI50: < 10 nM
  TGI: 2270 nM
SF-268 CNS
  GI50: 30.6 nM
  TGI: > 100000 nM
HL-60(TB) leukemia
  GI50: < 13.6 nM
LOX IMVI melanoma
  GI50: < 10 nM
  TGI: > 100000 nM
NCI-H23 lung
  GI50: 37.9 nM
  TGI: > 100000 nM
MOLT-4 leukemia
  GI50: < 19.2 nM
  TGI: > 100000 nM
SNB-75 CNS
  GI50: 28.2 nM
  TGI: > 100000 nM
HOP-92 NSCLC
  GI50: 43.8 nM
  TGI: > 100000 nM
COLO 205 colon
  GI50: 238 nM
  TGI: 1210 nM
SN12C renal
  GI50: < 16.9 nM
  TGI: > 100000 nM
MALME-3M melanoma
  GI50: < 28.4 nM
  TGI: > 100000 nM
OVCAR-3 ovarian
  GI50: < 18 nM
UACC-62 melanoma
  GI50: < 23.2 nM
  TGI: > 100000 nM
HS 578T breast
  GI50: 20 nM
  TGI: > 100000 nM
SK-MEL-28 melanoma
  GI50: 55.1 nM
  TGI: > 100000 nM
UACC-257 melanoma
  TGI: > 100000 nM
UO-31 renal
  GI50: 50.3 nM
  TGI: > 100000 nM
HCT-15 colon
  GI50: 22.7 nM
  TGI: > 100000 nM
RXF 393 renal
  GI50: 60.2 nM
  TGI: > 100000 nM
TK-10 renal
  GI50: > 100000 nM
  TGI: > 100000 nM
OVCAR-5 ovarian
  GI50: 37.7 nM
  TGI: > 100000 nM
SK-OV-3 ovarian
  GI50: 33.2 nM
  TGI: > 100000 nM
EKVX NSCLC
  TGI: > 100000 nM
SK-MEL-2 melanoma
  GI50: 40 nM
  TGI: > 100000 nM
U251 CNS
  GI50: 21.7 nM
  TGI: > 100000 nM
OVCAR-4 ovarian
  GI50: 4780 nM
  TGI: > 100000 nM
A549 NSCLC
  GI50: 32.1 nM
  TGI: > 100000 nM
MCF7 breast
  GI50: < 10 nM
  TGI: > 100000 nM
IGROV1 ovarian
  GI50: < 20.6 nM
  TGI: > 100000 nM
HCC-2998 colon
  GI50: 39.1 nM
  TGI: > 100000 nM
BT-549 breast
  GI50: < 15.1 nM
  TGI: 211 nM
SW-620 colon
  GI50: < 18.2 nM
  TGI: > 100000 nM
SK-MEL-5 melanoma
  GI50: < 15.5 nM
  TGI: 59.4 nM
786-0 renal
  GI50: < 20.8 nM
  TGI: > 100000 nM
PC-3 prostate
  GI50: < 19 nM
  TGI: > 100000 nM
K-562 leukemia
  GI50: < 15.8 nM
  TGI: > 100000 nM
NCI-H522 lung
  GI50: < 10 nM
  TGI: < 14 nM
HT29 colon
  GI50: 202 nM
  TGI: 1760 nM
A498 renal
  GI50: > 100000 nM
  TGI: > 100000 nM
ACHN renal
  GI50: < 18.1 nM
  TGI: > 100000 nM
CAKI-1 renal
  GI50: < 15.3 nM
  TGI: > 100000 nM
RPMI-8226 leukemia
  GI50: < 21.4 nM
  TGI: > 100000 nM
SR leukemia
  GI50: < 12.4 nM
  TGI: > 100000 nM
OVCAR-8 ovarian
  GI50: < 16.3 nM
NCI/ADR-RES ovarian
  GI50: 33.3 nM
  TGI: > 100000 nM
DU-145 prostate
  GI50: < 19.6 nM
  TGI: > 100000 nM
MDA-MB-231 breast
  GI50: < 17.8 nM
  TGI: > 100000 nM
SF-295 CNS
  GI50: 33.7 nM
  TGI: > 100000 nM
NCI-H460 lung
  GI50: < 18.3 nM
  TGI: > 100000 nM
T-47D breast
  GI50: > 100000 nM
  TGI: > 100000 nM
